Literature values as cited in patent US5138036A, “Isolation and structural elucidation of the cytostatic cyclodepsipeptide dolastatin 14” (Arizona Board of Regents acting on behalf of Arizona State …, priority 1989, dated 1992).

How the values were obtained:
human melanoma xenograph = details: 3.25-26 μg/kg
[1] = system: P388 lymphocytic leukemia (PS system); details: 1-4 μg/kg
B16 melanoma = details: 1.44-11.1 μg/kg

CC[C@H](C)[C@@H]([C@@H](CC(=O)N1CCC[C@H]1[C@H](OC)[C@@H](C)C(=O)N[C@@H](Cc1ccccc1)c1nccs1)OC)N(C)C(=O)[C@@H](NC(=O)[C@H](C(C)C)N(C)C)C(C)C [dolastatin 10]
curative response (human melanoma xenograph): 17-67%
life extension [1]: 69-102%
life extension (B16 melanoma): 42-138%
